pIC50: −log10 of the molar value.

In one test the test system is HepG2. In words: Growth inhibition of human HepG2 cells. The class given is functional.
The test system of a further test is HeLa. In words: Cytotoxicity against human HeLa S3 cells. Type of test: functional, cell-based.
The nature of test [1]: Cleavage of supercoiled pGL2 basic DNA assessed as number of strand breaks per plasmid at 150 uM.
Test [2] can be described thus: Cleavage of supercoiled pGL2 basic DNA assessed as number of strand breaks per plasmid at 150 uM in presence of thiol.
Test [3] is described as follows: Cleavage of thiol-mediated supercoiled pGL2 basic DNA assessed as nicked open circular form DNA level at 150 uM in presence 1 M methanol.
The nature of test [4]: Cleavage of supercoiled pGL2 basic DNA assessed as nicked open circular form DNA level at 150 uM.
Test [5] is described as follows: Cleavage of supercoiled pGL2 basic DNA assessed as nicked open circular form DNA level at 150 uM in presence of thiol.
A short description of test [6]: Cleavage of thiol-mediated supercoiled pGL2 basic DNA assessed as nicked open circular form DNA level at 150 uM in presence 1 M ethanol.
A short description of test [7]: Cleavage of thiol-mediated supercoiled pGL2 basic DNA assessed as nicked open circular form DNA level at 150 uM in presence 10 mM desferal.
Test [8] can be described thus: Cleavage of thiol-mediated supercoiled pGL2 basic DNA assessed as nicked open circular form DNA level at 150 uM in presence […].
The nature of test [9]: Cleavage of thiol-mediated supercoiled pGL2 basic DNA assessed as nicked open circular form DNA level at 150 uM in presence 100 ug/ml catalase.
Test [10] in a line: Cleavage of thiol-mediated supercoiled pGL2 basic DNA assessed as nicked open circular form DNA level at 150 uM in presence 100 ug/ml superoxide dismutase.
Test [11] is described as follows: Cleavage of thiol-mediated supercoiled pGL2 basic DNA assessed as nicked open circular form DNA level at 150 uM in presence 50 ug/ml superoxide dismutase.
Test [12] can be described thus: Cleavage of thiol-mediated supercoiled pGL2 basic DNA assessed as number of strand breaks per plasmid at 150 uM in presence of 1 M methanol.
A short description of test [13]: Cleavage of thiol-mediated supercoiled pGL2 basic DNA assessed as number of strand breaks per plasmid at 150 uM in presence of 1 M ethanol.
Test [14] in a line: Cleavage of thiol-mediated supercoiled pGL2 basic DNA assessed as number of strand breaks per plasmid at 150 uM in presence of 10 mM desferal.
Test [15] in a line: Cleavage of thiol-mediated supercoiled pGL2 basic DNA assessed as number of strand breaks per plasmid at 150 uM in presence of 10 mM diethylenetriaminepentaacetic acid.
A short description of test [16]: Cleavage of thiol-mediated supercoiled pGL2 basic DNA assessed as number of strand breaks per plasmid at 150 uM in presence of 1 M DMSO.
The nature of test [17]: Cleavage of thiol-mediated supercoiled pGL2 basic DNA assessed as number of strand breaks per plasmid at 150 uM in presence of 100 ug/ml catalase.
Test [18] is described as follows: Cleavage of thiol-mediated supercoiled pGL2 basic DNA assessed as nicked open circular form DNA level at 150 uM in presence 10 mM diethylenetriaminepentaacetic acid.

As usually defined, the GI50 is the concentration at which growth is held to half of that of the control. A lower GI50 goes with more potent growth inhibition. `N[C@@H](Cc1ccc(N(CCCl)CCCl)cc1)C(=O)O` [MELPHALAN]: in the test with HepG2, the GI50 worked out at 17 µM.

Usually pIC50 stands for −log10 of the IC50, conventionally taken in molar units. Take `C/C1=C\[C@@H](O)C(=O)/C=C/C=C\c2csc(n2)[C@@H](C)NC(=O)C[C@@]2(CC1)[S+]([O-])SC(=O)[C@]2(C)O` (stereo partly specified) [LEINAMYCIN]: the negative-log IC50 (pIC50) in the test on HeLa was 7.57.

Take BLEOMYCIN: the GI50 with HepG2 was 1 µM.

With `CC1(C)SSC(=O)C1(C)O` (stereo unspecified), the Activity amounted to 0.2 in test [1]; 1.32 in [2]; 27.5% in [3]; 18.2% in test [4]; 73.1% in test [5]; 19% in test [6]. In addition, the Activity in test [7] is 25.9%; in [8], 15.5%; in test [9], 19.3%; in [10], 100%; in [11], 100%; in test [12], 0.32. Also, the Activity in test [13] was found to be 0.21; in test [14], 0.3; in test [15] it was 0.21; in test [16], 0.17; in [17], 0.21; in test [18], 19%.

`CC1(O)C(=O)S[S+]([O-])C1(C)C` (stereo unspecified): the Activity stood at 2.58 in test [2] and 92.5% in [5].

For `O=c1ssc2ccccc12`, the Activity in test [2] came out at 0.4; in test [5] it was 33.1%.

In turn, `C/C1=C\[C@@H](O)C(=O)/C=C/C=C\c2csc(n2)[C@@H](C)NC(=O)C[C@@]2(CC1)SSC(=O)[C@]2(C)O` gave a pIC50 with HeLa of 5.40.
